Data published in patent US20230338609A1, “MEDICAL DEVICES AND MATERIALS COMPRISING BIODEGRADABLE POLYESTERS” (AMICOAT AS, priority 2020, published 2023).

How the values were obtained:
[1] = system: Salmonella sp - antibiotic-susceptible clinical isolate; test: MIC microbroth dilution (CLSI); assay type: cell-based
Excerpt: (§1) Cation-adjusted Mueller-Hinton broth (Oxoid Ltd., Basingstoke, UK and Trek Diagnostic Systems Ltd., East Grinstead, UK) (supplemented with 5% laked horse blood for Streptococcus spp., Corynebacterium jeikeium and Listeria monocytogenes) was used for aerobic bacteria, with an initial inoculum of approximately 10^5 colony-forming units (CFU)/mL.

[2] = system: Salmonella sp - multi-drug resistant clinical isolate; test: MIC microbroth dilution (CLSI); assay type: cell-based
Excerpt: as §1

[3] = system: Shigella sp - antibiotic-susceptible clinical isolate; test: MIC microbroth dilution (CLSI); assay type: cell-based
Excerpt: as §1

[4] = system: Corynebacterium jeikeium - antibiotic-susceptible clinical isolate; assay type: cell-based
Excerpt: as §1

[5] = system: Corynebacterium jeikeium - multi-drug resistant clinical isolate; assay type: cell-based
Excerpt: as §1

[6] = system: EMRSA1 Staphylococcus aureus (MRSA) - SSCmec type 3; assay type: cell-based; conditions: EMRSA1 - SSCmec type 3
Excerpt: as §1

[7] = system: Enterobacter sp - antibiotic-susceptible clinical isolate; assay type: cell-based
Excerpt: as §1

[8] = system: Enterococcus faecalis - ATCC 29212 antibiotic-susceptible control strain; assay type: cell-based
Excerpt: as §1

[9] = system: Enterococcus faecalis high-level gentamicin-resistant clinical isolate; assay type: cell-based
Excerpt: as §1

[10] = system: Enterococcus faecalis vancomycin-resistant (VanA) clinical isolate; assay type: cell-based
Excerpt: as §1

[11] = system: Enterococcus faecalis vancomycin-resistant (VanB) clinical isolate; assay type: cell-based
Excerpt: as §1

[12] = system: Enterococcus faecium vancomycin-resistant (VanA) clinical isolate; assay type: cell-based
Excerpt: as §1

[13] = system: Enterococcus faecium vancomycin-resistant (VanB) clinical isolate; assay type: cell-based
Excerpt: as §1

[14] = system: Enterococcus gallinarum vancomycin-resistant (VanC) clinical isolate; assay type: cell-based
Excerpt: as §1

[15] = system: Escherichia coli ATCC25922 - antibiotic-susceptible type strain; assay type: cell-based
Excerpt: as §1

[16] = system: Group C Streptococcus - antibiotic-susceptible clinical isolate; assay type: cell-based
Excerpt: as §1

[17] = system: Group G Streptococcus - macrolide-resistant clinical isolate; assay type: cell-based
Excerpt: as §1

[18] = system: Klebsiella aerogenes NCTC11228 - antibiotic-susceptible type strain; assay type: cell-based
Excerpt: as §1

[19] = system: MU50 Staphylococcus aureus (MRSA) - VISA type strain; assay type: cell-based
Excerpt: as §1

[20] = system: Morganella morganii - multi-drug resistant clinical isolate; assay type: cell-based
Excerpt: as §1

[21] = system: Pseudomonas aeruginosa - multi-drug resistant clinical isolate; assay type: cell-based
Excerpt: as §1

[22] = system: Pseudomonas aeruginosa ATCC27853 - antibiotic-susceptible type strain; assay type: cell-based
Excerpt: as §1

[23] = system: Staphylococcus aureus - multi-drug-resistant clinical isolate; assay type: cell-based
Excerpt: as §1

[24] = system: Staphylococcus aureus - teicoplanin-intermediate clinical isolate; assay type: cell-based
Excerpt: as §1

[25] = system: Staphylococcus aureus ATCC 25923 - antibiotic-susceptible control strain; assay type: cell-based
Excerpt: as §1

[26] = system: Staphylococcus aureus ATCC 29213 - antibiotic-susceptible control strain; assay type: cell-based
Excerpt: as §1

[27] = system: Staphylococcus epidermidis antibiotic susceptible clinical isolate; assay type: cell-based
Excerpt: as §1

[28] = system: Staphylococcus haemolyticus - antibiotic susceptible clinical isolate; assay type: cell-based
Excerpt: as §1

[29] = system: Staphylococcus saprophyticus - antibiotic susceptible clinical isolate; assay type: cell-based
Excerpt: as §1

[30] = system: Stenotrophomonas maltophilia - antibiotic-susceptible clinical isolate; assay type: cell-based
Excerpt: as §1

[31] = system: Streptococcus agalactiae - antibiotic-susceptible clinical isolate; assay type: cell-based
Excerpt: as §1

[32] = system: Streptococcus agalactiae - macrolide-resistant clinical isolate; assay type: cell-based
Excerpt: as §1

[33] = system: Streptococcus bovis - antibiotic-susceptible clinical isolate; assay type: cell-based
Excerpt: as §1

[34] = system: Streptococcus pyogenes - Macrolide (M-type) resistance clinical isolate; assay type: cell-based; conditions: - Macrolide (M-type) resistance clinical isolate
Excerpt: as §1

[35] = system: Haemophilus influenzae - β -lactamase positive clinical isolate
[36] = system: Haemophilus influenzae β- lactamase negative ampicillin-resistant clinical isolate
[37] = system: Propionibacterium acnes- antibiotic-resistant clinical isolate; conditions: P. acnes antibiotic-resistant
[38] = system: Methicillin resistant Staphylococcus aureus (MRSA) strain ATCC 33591; conditions: ATCC 33591
[39] = system: Methicillin resistant Staphylococcus epidermidis (MRSE) strain ATCC 27626; conditions: ATCC 27626
C. albicans = conditions: Table 5
S. pyogenes = conditions: Table 5

CCCCCCNC(=O)[C@H](CCCNC(=N)N)NC(=O)[C@H](Cc1c(C(C)(C)C)[nH]c2c(C(C)(C)C)cc(C(C)(C)C)cc12)NC(=O)[C@@H](N)CCCNC(=N)N [Compound 8]
4 mg/L: MIC [3] | MIC [4] | MIC [6] | MIC [8] | MIC [10] | MIC [12] | MIC [13] | MIC [14] | MIC [15] | MIC [19] | MIC [21] | MIC [23] | MIC [24] | MIC [25] | MIC [26] | MIC [28] | MIC [30] | MIC [35]
5 mg/L: C. albicans (MIC) (C. albicans)
8 mg/L: MIC [1] | MIC [2] | MIC [7] | MIC [9] | MIC [11] | MIC [16] | MIC [17] | MIC [18] | MIC [20] | MIC [22] | MIC [27] | MIC [31] | MIC [32] | MIC [33] | MIC [34] | MIC [36]
<1 mg/L: MRSE (MIC) [39]
0.5 mg/L: MIC [29]
2 mg/L: MIC [5] | MIC [37] | MRSA (MIC) [38] | S. pyogenes (MIC) (S. pyogenes)
